Experimental data from patent US4255183A, “Substituted phenyl urea and herbicides for use in paddy field” (Hokko Chemical Industry Co., Ltd., priority 1977, dated 1981).
Where two headings read alike, the source gives them in different places.

Assays:
paddy rice [1] = conditions: known upland herbicides; cited from earlier work
[2] = test system: Echinochloa crus-galli var. oryzicola; test: Test Example 1: pot test on selectivity, inhibition of Echinochloa crus-galli var. oryzicola; assay type: in vivo; conditions: Echinochloa crus-galli, 720 h
Experimental: (§1) In a Wagner pot of 1/500 are, paddy field soil (alluvial soil) was placed and 50 seeds of Echinochloa crus-galli var. oryzicola and 30 seeds of paddy rice were seeded in the surface layer of said soil and the submerging depth was kept at about 1 cm. When Echinochloa crus-galli var. oryzicola reached at the one leaf stage and 5-leaf stage, the emulsion of a predetermined concentration, prepared according to Example 4 was added dropwise. After 30 days from the treatment with the chemical, dry weights of Echinochloa crus-galli var. oryzicola and paddy rice were measured and the inhibition rate was calculated with reference to untreated area. [formula]
(§2) The comparative chemicals used, i.e. DCMU and Linuron, were those commercially available, and the comparative chemicals A and B used were prepared according to the process for formulating the compound of this invention.

various weeds = conditions: known upland herbicides; cited from earlier work
Dopatrium junceum = test: Test Example 5: Wagner pot test, herbicidal effect on Dopatrium junceum; assay type: in vivo
Experimental: (§3) In a 1/7500 are Wagner pot, sieved paddy field soil (alluvial soil) was charged. Thereafter, in the center portion of the pot, 2 roots of paddy rice (Asahi species) at the 2- to 3-leaf stage were transplanted and 20 seeds of Bulrush per pot were seeded in the surface of the above soil. The pot was submerged at the depth of about 2 cm. The other Dopatrium junceum and umbrella plant were generated naturally. After seeding, when each of the weeds reached the same leaf age as defined in Table 5 given herein, a predetermined concentration of the emulsion prepared according to Example 4 was applied dropwise on the surface of the pot. The test was carried out by repeating the same test three times per area and the results were determined 20 days after the application of the chemicals with regard to the herbicidal effect and chemical injury on paddy rice on the basis of the evaluation index as shown below.
(§4) As the comparative chemicals Molinate, Benthiocarb and DCMU, those commercially available were used.
(§5) In the above table, the inhibition rate was calculated according to the method as described in Test Example 1.

paddy rice [3] = test: Test Example 1: pot test on selectivity, inhibition of paddy rice; assay type: in vivo; conditions: for inhibition at 750 g/ha / inhibition at 1500 g/ha / inhibition at 3000 g/ha / inhibition at 6000 g/ha / inhibition at 9000 g/ha: Oryza sativa, 720 h; for selectivity between Echinochloa crus-galli var. oryzicola and paddy rice: in vivo
Experimental: as §1, with “When Echinochloa crus-galli var. oryzicola reached at the one leaf stage and 5-leaf stage, the emulsion of a predetermined concentration, prepared according to Example 4 was added dropwise.” left out
as §2

paddy rice [4] = test: Test Example 5: Wagner pot test, chemical injury on paddy rice; assay type: in vivo, paddy rice (Asahi species); further: key: 5: Completely killed; 4: Considerably injured; 3: Moderately injured; 2: A little injured; 1: Slightly injured; 0: Not injured
Experimental: as §3, §4

Umbrella plant = test: Test Example 5: Wagner pot test, herbicidal effect on umbrella plant; assay type: in vivo; conditions: 20 days after application
Experimental: as §3, §4, §5

Bulrush = test: Test Example 5: Wagner pot test, herbicidal effect on Bulrush; assay type: in vivo
Experimental: as §3, §4, §5

[5] = read-out: Inhibition (%) by treatment at 1-leaf stage, E. crus-galli var. oryzicola
[6] = read-out: Inhibition (%) by treatment at 5-leaf stage, E. crus-galli var. oryzicola
[7] = 300 g/10a, leaf age 3, 20 days after application
[8] = 600 g/10a, leaf age 3, 20 days after application
[9] = read-out: Inhibition (%) by treatment at 1-leaf stage, paddy rice
[10] = read-out: Inhibition (%) by treatment at 5-leaf stage, paddy rice

| SMILES | chemical injury to paddy rice (paddy rice [1]) | inhibition at 750 g/ha [2, 5] | inhibition at 1500 g/ha [2, 5] | inhibition at 3000 g/ha [2, 5] | inhibition at 6000 g/ha [2, 5] | inhibition at 9000 g/ha [2, 5] | inhibition at 750 g/ha [2, 6] | inhibition at 1500 g/ha [2, 6] | inhibition at 3000 g/ha [2, 6] | inhibition at 6000 g/ha [2, 6] | inhibition at 9000 g/ha [2, 6] | herbicidal activity against various weeds (various weeds) | inhibition at 750 g/ha (paddy rice [3]; [9]) | inhibition at 1500 g/ha (paddy rice [3]; [9]) | inhibition at 3000 g/ha (paddy rice [3]; [9]) | inhibition at 6000 g/ha (paddy rice [3]; [9]) | inhibition at 9000 g/ha (paddy rice [3]; [9]) | inhibition at 750 g/ha (paddy rice [3]; [10]) | inhibition at 1500 g/ha (paddy rice [3]; [10]) | inhibition at 3000 g/ha (paddy rice [3]; [10]) | also measured |
| --- | --- | --- | --- | --- | --- | --- | --- | --- | --- | --- | --- | --- | --- | --- | --- | --- | --- | --- | --- | --- | --- |
| CN(C)C(=O)Nc1ccc(Cl)c(Cl)c1 [DCMU, 3-(3,4-dichlorophenyl)-1,1-dimethyl urea] | strong chemical injury to paddy rice | 91% | 100% | 100% | 100% | 100% | 76% | 100% | 100% | 100% | 100% | strong herbicidal activity | 92% | 100% | 100% | 100% | 100% | 61% | 100% | 100% | Weed kill degree, Dopatrium junceum (Dopatrium junceum; 300 g/10a, leaf age 2, 20 days after application): 5 (100); Weed kill degree, Dopatrium junceum (Dopatrium junceum; [7]): 5 (100); Weed kill degree, Dopatrium junceum (Dopatrium junceum; 600 g/10a, leaf age 2, 20 days after application): 5 (100); Weed kill degree, Dopatrium junceum (Dopatrium junceum; [8]): 5 (100); inhibition at 6000 g/ha (paddy rice [3]; [10]): 100%; inhibition at 9000 g/ha (paddy rice [3]; [10]): 100%; selectivity between Echinochloa crus-galli var. oryzicola and paddy rice (paddy rice [3]): kill not only Echinochloa crus-galli var. oryzicola but also paddy rice; Chemical injury on paddy rice (paddy rice [4]; 300 g/10a, 3 tillers, 20 days after application): 4; Chemical injury on paddy rice (paddy rice [4]; [7]): 5; Chemical injury on paddy rice (paddy rice [4]; 600 g/10a, 3 tillers, 20 days after application): 5; Chemical injury on paddy rice (paddy rice [4]; [8]): 5; Weed kill degree, Umbrella plant (Umbrella plant; 300 g/10a, leaf age 2 (first group of columns)): 5 (100); Weed kill degree, Umbrella plant (Umbrella plant; 300 g/10a, leaf age 2 (second group of columns)): 4-5; Weed kill degree, Umbrella plant (Umbrella plant; 600 g/10a, leaf age 2 (first group of columns)): 5 (100); Weed kill degree, Umbrella plant (Umbrella plant; 600 g/10a, leaf age 2 (second group of columns)): 5 (100); Weed kill degree, Bulrush (Bulrush; [7]): 5 (100); Weed kill degree, Bulrush (Bulrush; 300 g/10a, leaf age 3-5, 20 days after application): 5 (100); Weed kill degree, Bulrush (Bulrush; [8]): 5 (100); Weed kill degree, Bulrush (Bulrush; 600 g/10a, leaf age 3-5, 20 days after application): 5 (100) |
| CON(C)C(=O)Nc1ccc(Cl)c(Cl)c1 [Linuron, 3-(3,4-dichlorophenyl)-1-methoxy-1-methyl urea] | strong chemical injury to paddy rice | 82% | 100% | 100% | 100% | 100% | 72% | 100% | 100% | 100% | 100% | strong herbicidal activity | 81% | 100% | 100% | 100% | 100% | 53% | 100% | 100% | inhibition at 6000 g/ha (paddy rice [3]; [10]): 100%; inhibition at 9000 g/ha (paddy rice [3]; [10]): 100%; selectivity between Echinochloa crus-galli var. oryzicola and paddy rice (paddy rice [3]): kill not only Echinochloa crus-galli var. oryzicola but also paddy rice |
